{"source": "ChEMBL document CHEMBL5291721", "about": "“A preclinical secondary pharmacology resource illuminates target-adverse drug reaction associations of marketed drugs” (Nat Commun, 2023); further: assay procedure not described here", "key": {"D(1B) dopamine receptor": {"molecular_target": "D(1B) dopamine receptor (Homo sapiens, UniProt P21918)", "sequence (P21918 whole entry)": "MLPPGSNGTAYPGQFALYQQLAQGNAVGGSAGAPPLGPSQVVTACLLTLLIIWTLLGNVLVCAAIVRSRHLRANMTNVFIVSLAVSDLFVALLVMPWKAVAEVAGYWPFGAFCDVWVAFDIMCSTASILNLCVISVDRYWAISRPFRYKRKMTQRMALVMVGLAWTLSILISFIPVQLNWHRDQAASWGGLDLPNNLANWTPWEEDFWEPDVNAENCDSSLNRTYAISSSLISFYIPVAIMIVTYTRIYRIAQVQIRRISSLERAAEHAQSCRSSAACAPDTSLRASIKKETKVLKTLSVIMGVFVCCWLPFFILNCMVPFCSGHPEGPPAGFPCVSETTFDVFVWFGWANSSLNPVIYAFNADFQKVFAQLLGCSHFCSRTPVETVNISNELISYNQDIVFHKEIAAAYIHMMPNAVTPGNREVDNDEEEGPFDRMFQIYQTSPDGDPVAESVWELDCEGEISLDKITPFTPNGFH"}, "[1]": {"molecular_target": "T1, Muscarinic acetylcholine receptor M5 (Homo sapiens, UniProt P08912)", "T1 sequence (P08912 whole entry)": "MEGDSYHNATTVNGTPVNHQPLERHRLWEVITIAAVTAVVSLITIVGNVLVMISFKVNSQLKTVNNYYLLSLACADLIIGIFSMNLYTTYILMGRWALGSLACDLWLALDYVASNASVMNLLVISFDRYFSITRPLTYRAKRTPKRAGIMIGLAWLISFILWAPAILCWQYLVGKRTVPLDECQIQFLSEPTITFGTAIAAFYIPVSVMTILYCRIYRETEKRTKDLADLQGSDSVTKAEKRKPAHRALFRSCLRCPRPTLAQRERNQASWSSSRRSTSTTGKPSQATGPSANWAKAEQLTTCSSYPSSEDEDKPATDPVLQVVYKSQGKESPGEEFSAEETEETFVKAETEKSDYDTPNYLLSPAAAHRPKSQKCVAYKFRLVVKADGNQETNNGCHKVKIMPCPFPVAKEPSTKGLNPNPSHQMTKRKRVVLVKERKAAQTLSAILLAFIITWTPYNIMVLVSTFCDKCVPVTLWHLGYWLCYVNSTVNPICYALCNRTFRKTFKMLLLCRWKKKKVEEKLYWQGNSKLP"}, "[2]": {"molecular_target": "5-hydroxytryptamine receptor 2B (Homo sapiens, UniProt P41595)", "sequence (P41595 whole entry)": "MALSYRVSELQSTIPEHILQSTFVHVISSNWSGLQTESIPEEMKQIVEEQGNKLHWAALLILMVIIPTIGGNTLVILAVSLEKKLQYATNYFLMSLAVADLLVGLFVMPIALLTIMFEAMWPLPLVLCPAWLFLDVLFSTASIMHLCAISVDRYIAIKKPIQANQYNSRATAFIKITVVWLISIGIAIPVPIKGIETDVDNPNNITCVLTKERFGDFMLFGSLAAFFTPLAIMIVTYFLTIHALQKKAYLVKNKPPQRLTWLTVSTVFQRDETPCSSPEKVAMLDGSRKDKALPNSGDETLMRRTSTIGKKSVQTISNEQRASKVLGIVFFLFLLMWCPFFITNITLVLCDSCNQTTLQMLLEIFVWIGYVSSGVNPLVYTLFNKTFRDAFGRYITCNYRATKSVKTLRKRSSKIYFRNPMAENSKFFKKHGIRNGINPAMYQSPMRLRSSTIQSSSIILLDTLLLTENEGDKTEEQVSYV"}, "[3]": {"molecular_target": "T2, Retinoic acid receptor alpha (Homo sapiens, UniProt P10276)", "T2 sequence (P10276 whole entry)": "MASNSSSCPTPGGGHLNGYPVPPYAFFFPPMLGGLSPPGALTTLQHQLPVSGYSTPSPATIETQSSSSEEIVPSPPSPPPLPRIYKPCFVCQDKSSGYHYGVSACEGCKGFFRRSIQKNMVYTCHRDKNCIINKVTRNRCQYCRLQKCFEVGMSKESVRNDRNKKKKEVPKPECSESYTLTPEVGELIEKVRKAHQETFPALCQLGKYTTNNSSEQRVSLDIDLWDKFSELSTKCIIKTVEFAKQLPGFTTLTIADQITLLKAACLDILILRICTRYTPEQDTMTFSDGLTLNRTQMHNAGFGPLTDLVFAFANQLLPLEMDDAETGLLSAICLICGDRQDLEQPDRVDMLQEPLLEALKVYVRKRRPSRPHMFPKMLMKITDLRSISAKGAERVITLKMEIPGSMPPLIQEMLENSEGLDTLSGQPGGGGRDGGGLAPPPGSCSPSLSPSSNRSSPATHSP", "format": "functional, cell-based"}, "[4]": {"molecular_target": "T3, Retinoic acid receptor beta (Homo sapiens, UniProt P10826)", "T3 sequence (P10826 whole entry)": "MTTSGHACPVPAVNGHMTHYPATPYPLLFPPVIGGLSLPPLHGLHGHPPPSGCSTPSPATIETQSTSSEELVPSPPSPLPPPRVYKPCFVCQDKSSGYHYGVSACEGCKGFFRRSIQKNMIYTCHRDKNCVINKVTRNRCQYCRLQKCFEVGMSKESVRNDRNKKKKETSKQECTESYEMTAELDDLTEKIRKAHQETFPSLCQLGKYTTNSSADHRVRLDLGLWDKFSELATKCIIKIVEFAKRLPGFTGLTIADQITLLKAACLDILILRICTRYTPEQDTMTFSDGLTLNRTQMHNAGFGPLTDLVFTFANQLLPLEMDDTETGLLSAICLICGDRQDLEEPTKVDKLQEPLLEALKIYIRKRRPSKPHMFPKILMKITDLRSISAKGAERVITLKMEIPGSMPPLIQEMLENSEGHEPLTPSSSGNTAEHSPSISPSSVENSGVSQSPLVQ", "format": "functional, cell-based"}, "[5]": {"molecular_target": "T4, Retinoic acid receptor gamma (Homo sapiens, UniProt P13631)", "T4 sequence (P13631 whole entry)": "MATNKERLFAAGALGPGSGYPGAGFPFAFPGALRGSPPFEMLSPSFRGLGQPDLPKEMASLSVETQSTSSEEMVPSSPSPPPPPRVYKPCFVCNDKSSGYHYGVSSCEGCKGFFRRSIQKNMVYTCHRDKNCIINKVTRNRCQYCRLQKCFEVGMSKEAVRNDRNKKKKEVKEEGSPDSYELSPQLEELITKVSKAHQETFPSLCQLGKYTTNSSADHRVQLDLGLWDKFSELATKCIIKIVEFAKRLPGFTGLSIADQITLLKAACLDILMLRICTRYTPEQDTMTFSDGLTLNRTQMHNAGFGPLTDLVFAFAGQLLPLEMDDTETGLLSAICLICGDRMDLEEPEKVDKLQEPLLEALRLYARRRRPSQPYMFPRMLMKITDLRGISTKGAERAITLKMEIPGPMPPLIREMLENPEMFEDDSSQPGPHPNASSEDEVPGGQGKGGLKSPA", "format": "functional, cell-based"}, "[6]": {"molecular_target": "T5, Oxysterols receptor LXR-alpha (Homo sapiens, UniProt Q13133)", "T5 sequence (Q13133 whole entry)": "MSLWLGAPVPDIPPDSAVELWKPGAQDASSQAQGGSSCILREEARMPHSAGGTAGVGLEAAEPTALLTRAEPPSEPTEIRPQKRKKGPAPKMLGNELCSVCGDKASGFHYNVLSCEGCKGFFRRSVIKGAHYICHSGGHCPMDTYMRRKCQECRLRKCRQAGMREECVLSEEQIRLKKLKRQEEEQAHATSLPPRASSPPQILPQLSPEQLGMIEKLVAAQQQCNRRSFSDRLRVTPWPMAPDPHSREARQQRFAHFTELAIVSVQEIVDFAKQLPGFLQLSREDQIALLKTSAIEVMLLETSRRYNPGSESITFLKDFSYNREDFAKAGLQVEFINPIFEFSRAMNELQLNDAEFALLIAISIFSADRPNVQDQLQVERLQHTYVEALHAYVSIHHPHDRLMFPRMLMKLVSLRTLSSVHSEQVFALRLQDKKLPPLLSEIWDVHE", "format": "functional"}, "[7]": {"molecular_target": "T2, Retinoic acid receptor alpha", "format": "functional, cell-based", "remark": "listed apart in the source"}}}
{"compound": "CCOC(=O)[C@H](CCc1ccccc1)N[C@@H](C)C(=O)N1Cc2ccccc2C[C@H]1C(=O)O", "values": [{"measurement": "AC50", "setting": "D(1B) dopamine receptor", "result": "> 10", "unit": "µM"}, {"measurement": "AC50", "setting": "[1]", "result": "> 10", "unit": "µM"}]}
{"compound": "CN(C)CCCC1(c2ccc(F)cc2)OCc2cc(C#N)ccc21", "note": "(stereo not given) [CITALOPRAM]", "values": [{"measurement": "AC50", "setting": "[2]", "result": 0.3, "unit": "µM"}]}
{"compound": "CC(C)/N=c1\\cc2n(-c3ccc(Cl)cc3)c3ccccc3nc-2cc1Nc1ccc(Cl)cc1", "note": "[CLOFAZIMINE]", "values": [{"measurement": "AC50", "setting": "[3]", "result": "> 30", "unit": "µM"}, {"measurement": "AC50", "setting": "[4]", "result": "> 30", "unit": "µM"}, {"measurement": "AC50", "setting": "[5]", "result": "> 30", "unit": "µM"}, {"measurement": "AC50", "setting": "[6]", "result": "> 30", "unit": "µM"}, {"measurement": "AC50", "setting": "[7]", "result": "> 30", "unit": "µM"}]}
{"compound": "NCC1(CC(=O)O)CCCCC1", "note": "[GABAPENTIN]", "values": [{"measurement": "AC50", "setting": "[1]", "result": "> 10", "unit": "µM"}]}
{"compound": "Cc1ccc(C(C)C)c(O)c1", "note": "[THYMOL]", "values": [{"measurement": "AC50", "setting": "[2]", "result": 9.1, "unit": "µM"}]}
